Earlier results as cited in patent US20260272852A1, “COAGULATION PATHWAY AND NICOTINAMIDE-ADENINE DINUCLEOTIDE PATHWAY MODULATING COMPOSITIONS AND METHODS OF THEIR USE” (L'OREAL, priority 2021, published 2026).

Columns and labels:
[1] = tested on: suction induced petechia formation; settings: 0.5% vitamin K1 cream twice daily for one week, ten healthy individuals
[2] = tested on: hyperpigmentation spots, fine lines, and wrinkles; settings: moisturizer containing 5% niacinamide, half of face, 12 weeks
[3] = topical 4% niacinamide treatment
[4] = tested on: 585-nm pulsed dye laser-induced purpuras

CC1=C(C/C=C(\C)CCC[C@H](C)CCC[C@H](C)CCCC(C)C)C(=O)c2ccccc2C1=O [vitamin K1, phylloquinone]
Influence on suction induced petechia formation [1]: no influence

NC(=O)c1cccnc1 [niacinamide]
Hyperpigmentation spots, fine lines, and wrinkles, treated side compared to control side [2]: significant improvements
Treated patients with good-to-excellent results [3]: 44%

vitamin K
Effect of pretreatment on 585-nm pulsed dye laser-induced purpuras [4]: no effect
